In patent publication US9695155B2, “Herbicidal substituted pyrimidinyloxy benzene compounds” (E. I. DU PONT DE NEMOURS AND COMPANY, priority 2013, dated 2017):

How the values were obtained:
[1] = system: barnyardgrass; experiment: Test A preemergence; type: in vivo, Echinochloa crus-galli
Description: (§1) Seeds of plant species selected from barnyardgrass (Echinochloa crus-galli), kochia (Kochia scoparia), ragweed (common ragweed, Ambrosia elatior), Italian ryegrass (Lolium multiflorum), large (Lg) crabgrass (Digitaria sanguinalis), giant foxtail (Setaria faberii), morningglory (Ipomoea spp.), pigweed (Amaranthus retroflexus), velvetleaf (Abutilon theophrasti), wheat (Triticum aestivum), and corn (Zea mays) were planted into a blend of loam soil and sand and treated preemergence with a directed soil spray using test chemicals formulated in a non-phytotoxic solvent mixture which included a surfactant.
(§2) At the same time, plants selected from these crop and weed species and also blackgrass (Alopecurus myosuroides), and galium (catchweed bedstraw, Galium aparine) were planted in pots containing the same blend of loam soil and sand and treated with postemergence applications of test chemicals formulated in the same manner. Plants ranged in height from 2 to 10 cm and were in the one- to two-leaf stage for the postemergence treatment. Treated plants and untreated controls were maintained in a greenhouse for approximately 10 days, after which time all treated plants were compared to untreated controls and visually evaluated for injury. Plant response ratings, summarized in Table A, are based on a 0 to 100 scale where 0 is no effect and 100 is complete control. A dash (-) response means no test result.

[2] = system: large (Lg) crabgrass; experiment: Test A preemergence; type: in vivo, Digitaria sanguinalis
Description: as §1, §2

[3] = system: giant foxtail; experiment: Test A preemergence; type: in vivo, Setaria faberii
Description: as §1, §2

[4] = system: morningglory; experiment: Test A preemergence; type: in vivo, Ipomoea spp.
Description: as §1, §2

[5] = system: pigweed; experiment: Test A preemergence; type: in vivo, Amaranthus retroflexus
Description: as §1, §2

[6] = system: velvetleaf; experiment: Test A preemergence; type: in vivo, Abutilon theophrasti
Description: as §1, §2

[7] = system: wheat; experiment: Test A preemergence; type: in vivo, Triticum aestivum
Description: as §1, §2

[8] = system: corn; experiment: Test A preemergence; type: in vivo, Zea mays
Description: as §1, §2

[9] = system: barnyardgrass; experiment: Test A postemergence; type: in vivo, Echinochloa crus-galli
Description: as §1, §2

[10] = system: large (Lg) crabgrass; experiment: Test A postemergence; type: in vivo, Digitaria sanguinalis
Description: as §1, §2

[11] = system: giant foxtail; experiment: Test A postemergence; type: in vivo, Setaria faberii
Description: as §1, §2

[12] = system: morningglory; experiment: Test A postemergence; type: in vivo, Ipomoea spp.
Description: as §1, §2

[13] = system: pigweed; experiment: Test A postemergence; type: in vivo, Amaranthus retroflexus
Description: as §1, §2

[14] = system: velvetleaf; experiment: Test A postemergence; type: in vivo, Abutilon theophrasti
Description: as §1, §2

[15] = system: wheat; experiment: Test A postemergence; type: in vivo, Triticum aestivum
Description: as §1, §2

[16] = system: corn; experiment: Test A postemergence; type: in vivo, Zea mays
Description: as §1, §2

[17] = 500 g ai/ha, 0 to 100 scale where 0 is no effect and 100 is complete control
[18] = 1000 g ai/ha, 0 to 100 scale, 0 no effect, 100 complete control, approx. 10 days
[19] = 1000 g ai/ha, 0 to 100 scale, 0 no effect, 100 complete control

SMILES	Barnyardgrass plant response rating [1, 18]	Crabgrass, Large plant response rating [2, 18]	Foxtail, Giant plant response rating [3, 18]	Morningglory plant response rating [4, 18]	Pigweed plant response rating [5, 18]	Velvetleaf plant response rating [6, 18]	Wheat plant response rating [7, 18]	Corn plant response rating [8, 18]	Plant response rating, Barnyardgrass [9, 19]	Plant response rating, Crabgrass, Large [10, 19]	Plant response rating, Foxtail, Giant [11, 19]	Plant response rating, Morningglory [12, 19]	Plant response rating, Pigweed [13, 19]	Plant response rating, Velvetleaf [14, 19]	Plant response rating, Wheat [15, 19]	Plant response rating, Corn [16, 19]	further results
Clc1cnc(Oc2ccccc2-n2cccn2)nc1 [Compound 12, 5-chloro-2-[2-(1H-pyrazol-1-yl)phenoxy]pyrimidine]	–	–	–	–	–	–	–	–	–	–	–	–	–	–	–	–	pest or weed control at 1000 g/ha ([1]; Echinochloa crus-galli, pre-emergence, 240 h, 1000 g ai/ha, 0 to 100 scale, 0 no effect, 100 complete control, read-out: Plant response rating, Barnyardgrass): 100%; pest or weed control at 1000 g/ha ([2]; Digitaria sanguinalis, pre-emergence, 240 h, 1000 g ai/ha, 0 to 100 scale, 0 no effect, 100 complete control, read-out: Plant response rating, Crabgrass, Large): 100%; pest or weed control at 1000 g/ha ([3]; Setaria faberi, pre-emergence, 240 h, 1000 g ai/ha, 0 to 100 scale, 0 no effect, 100 complete control, approx. 10 days, read-out: Foxtail, Giant plant response rating): 100%; pest or weed control at 1000 g/ha ([4]; Ipomoea, pre-emergence, 240 h, 1000 g ai/ha, 0 to 100 scale, 0 no effect, 100 complete control, approx. 10 days, read-out: Morningglory plant response rating): 0%; pest or weed control at 1000 g/ha ([5]; Amaranthus retroflexus, pre-emergence, 240 h, 1000 g ai/ha, 0 to 100 scale, 0 no effect, 100 complete control, approx. 10 days, read-out: Pigweed plant response rating): 100%; pest or weed control at 1000 g/ha ([6]; Abutilon theophrasti, pre-emergence, 240 h, 1000 g ai/ha, 0 to 100 scale, 0 no effect, 100 complete control, approx. 10 days, read-out: Velvetleaf plant response rating): 100%; plant injury at 1000 g/ha ([7]; Triticum aestivum, pre-emergence, 240 h, 1000 g ai/ha, 0 to 100 scale, 0 no effect, 100 complete control, approx. 10 days, read-out: Wheat plant response rating): 20%; Corn plant response rating (crop injury, 0 = no effect, 100 = complete kill) at 1000 g/ha ([8]; Zea mays, pre-emergence, 240 h, 1000 g ai/ha, 0 to 100 scale, 0 no effect, 100 complete control): 0%; pest or weed control at 1000 g/ha ([9]; Echinochloa crus-galli, post-emergence, 240 h, 1000 g ai/ha, 0 to 100 scale, 0 no effect, 100 complete control, read-out: Plant response rating Barnyardgrass): 90%; pest or weed control at 1000 g/ha ([10]; Digitaria sanguinalis, post-emergence, 240 h, 1000 g ai/ha, 0 to 100 scale, 0 no effect, 100 complete control, read-out: Plant response rating Crabgrass, Large): 80%; pest or weed control at 1000 g/ha ([11]; Setaria faberi, post-emergence, 240 h, 1000 g ai/ha, 0 to 100 scale, 0 no effect, 100 complete control, read-out: Plant response rating Foxtail, Giant): 80%; pest or weed control at 1000 g/ha ([12]; Ipomoea, post-emergence, 240 h, 1000 g ai/ha, 0 to 100 scale, 0 no effect, 100 complete control, read-out: Plant response rating Morningglory): 90%; pest or weed control at 1000 g/ha ([13]; Amaranthus retroflexus, post-emergence, 240 h, 1000 g ai/ha, 0 to 100 scale, 0 no effect, 100 complete control, read-out: Plant response rating Pigweed): 100%; pest or weed control at 1000 g/ha ([14]; Abutilon theophrasti, post-emergence, 240 h, 1000 g ai/ha, 0 to 100 scale, 0 no effect, 100 complete control, read-out: Plant response rating Velvetleaf): 100%; plant injury at 1000 g/ha ([15]; Triticum aestivum, post-emergence, 240 h, 1000 g ai/ha, 0 to 100 scale, 0 no effect, 100 complete control, read-out: Plant response rating Wheat): 20%; plant injury at 1000 g/ha ([16]; Zea mays, post-emergence, 240 h, 1000 g ai/ha, 0 to 100 scale, 0 no effect, 100 complete control, read-out: Plant response rating Corn): 30%
Fc1cccc(Oc2ncc(Cl)cn2)c1-n1cccn1 [Compound 176]	–	–	–	–	–	–	–	–	–	–	–	–	–	–	–	–	Barnyardgrass plant response rating [1, 17]: 60; Crabgrass, Large plant response rating [2, 17]: 100; Foxtail, Giant plant response rating [3, 17]: 100; Morningglory plant response rating [4, 17]: 0; Pigweed plant response rating [5, 17]: 100; Velvetleaf plant response rating [6, 17]: 90; Wheat plant response rating [7, 17]: 0; Corn plant response rating [8, 17]: 0; Plant response rating, Barnyardgrass [9, 17]: 40; Plant response rating, Crabgrass, Large [10, 17]: 40; Plant response rating, Foxtail, Giant [11, 17]: 50; Plant response rating, Morningglory [12, 17]: 80; Plant response rating, Pigweed [13, 17]: 100; Plant response rating, Velvetleaf [14, 17]: 90; Plant response rating, Wheat [15, 17]: 10; Plant response rating, Corn [16, 17]: 20
Oc1cccc(Oc2ncc(Cl)cn2)c1-n1cc(Cl)cn1 [Compound 229]	0	10	0	0	100	0	0	0	0	0	0	0	60	0	0	0	–
CC(=O)Oc1cccc(Oc2ncc(Cl)cn2)c1-n1cc(Br)cn1 [Compound 67]	–	–	10	0	100	10	0	–	20	10	10	10	100	70	0	10	Plant response rating, Barnyardgrass [1, 19]: 0; Plant response rating, Crabgrass, Large [2, 19]: 20; Plant response rating, Corn [8, 19]: 0
Fc1cc(F)cc(-c2cn(-c3c(Br)cccc3Oc3ncc(Cl)cn3)nn2)c1 [Compound 303]	0	60	50	0	80	0	0	0	20	20	20	30	90	70	0	10	–
N#CCOc1cccc(Oc2ncc(Cl)cn2)c1-n1cc(Br)cn1 [Compound 70]	–	–	60	10	90	70	0	–	80	60	60	20	70	70	0	10	Plant response rating, Barnyardgrass [1, 19]: 50; Plant response rating, Crabgrass, Large [2, 19]: 90; Plant response rating, Corn [8, 19]: 0
COc1ccc(I)c(-n2cc(Br)cn2)c1Oc1ncc(Cl)cn1 [Compound 207]	0	50	50	0	0	30	0	0	10	40	60	30	70	30	0	0	–
